Assay results as given in patent US9408828B2, “(+)-3′-angeloyloxy-4′-keto-3′,4′-dihydroseselin for treating inflammation” (Hong Kong Baptist University, priority 2014, dated 2016).

Columns and labels:
[1] = test system: RAW-Blue cells; assay: Cell viability (MTT) assay; assay type: cell-based, murine; settings: 24 hours
Experimental: Cells are cultured for 24 hours in the presence of Pd-Ib at the concentrations indicated, from 1.25-100 μg/mL. Cell viability is assessed using MTT assay. Data are derived from three independent experiments and presented as mean±SEM. “con” stands for the vehicle control group.
Cells (5×10^4) are cultured in 96-well plates for 24 hours. Then cells are cultured with various concentrations of Pd-Ib (1.25, 2.5, 5, 10, 20, 40, 80, 100 μg/mL) for 24 hours. After that, 10 μL of 5 mg/mL MTT is added to each well, and the cells are cultured in the dark for 3 hours. The medium is then discarded, and 100 μL of dimethyl sulfoxide (DMSO) is added into each well. After 15 min incubation, the optical density at 570 nm is read by using a micro-plate reader to determine the cell viability.

[2] = test system: nitric oxide (NO) production in LPS-stimulated RAW-Blue cells; assay: Nitric oxide production determination (Griess reagent); assay type: cell-based, murine; settings: Mus musculus, LPS 1 μg/mL 20 hours
Experimental: After macrophages are treated with 1 μg/mL of LPS in absence or presence various concentrations of Pd-Ib (5, 10, 20 μg/mL) for 20 hours, the mRNA levels of iNOS (A), TNF-α (B) and IL-1β (C) are determined by real time PCR, while the production of NO (D) is determined by Griess reagent. Data are derived from three independent experiments and presented as mean±SEM, “con” stands for the vehicle control group. ^#Compared with control group. *P<0.05, **P<0.01 and ***P<0.001 are compared with LPS-alone group.
Nitric oxide (NO) production is indirectly assessed by measuring the nitrite levels in the cultured medium determined by a colorimetric method based on the Griess reagent and sodium nitrite as a standard substance. The cells are pretreated with various concentrations of Pd-Ib (5-20 μg/mL). Two hours later, cells are incubated for another 20 hours in the presence of LPS (1 μg/mL) at 37° C. Then, 100 μL of each supernatant is mixed with the equal volume of Griess reagent. The samples are incubated at room temperature for 15 min. The optical densities are measured at 540 nm with a micro-plate reader and nitrite concentration is determined using a standard curve generated with known concentrations of sodium nitrite.

With C/C=C(\C)C(=O)OC1C(=O)c2c(ccc3ccc(=O)oc23)OC1(C)C (single isomer, unassigned; (+)) [Pd-Ib, (+)-3′-Angeloyloxy-4′-keto-3′,4′-dihydroseselin] the cytotoxic effect ([1]; 1.56 to 20 μg/mL) was “does not exhibit cytotoxic effect”, the cell viability ([1]; 40, 80, and 100 μg/mL) was “cell viability is reduced” and the inhibition at 5 µg/mL ([2]; 5 μg/mL) was 17.6 ± 2.96%. For the same compound, the inhibition at 10 µg/mL ([2]; 10 μg/mL) was 29.8 ± 1.34% and the inhibition at 20 µg/mL ([2]; 20 μg/mL) was 55.5 ± 1.15%.
